{"source": "patent US5066580A", "about": "“Xanthene dyes that emit to the red of fluorescein” (priority 1990, dated 1991)", "key": {"[1]": {"experiment": "Membrane permeability of diacetates", "details": "diacetate esters"}, "[2]": {"biological_target": "T1, pig liver esterase (E.C. 3.1.1.1) (Sus scrofa, UniProt Q29550)", "T1 sequence (Q29550 19-566)": "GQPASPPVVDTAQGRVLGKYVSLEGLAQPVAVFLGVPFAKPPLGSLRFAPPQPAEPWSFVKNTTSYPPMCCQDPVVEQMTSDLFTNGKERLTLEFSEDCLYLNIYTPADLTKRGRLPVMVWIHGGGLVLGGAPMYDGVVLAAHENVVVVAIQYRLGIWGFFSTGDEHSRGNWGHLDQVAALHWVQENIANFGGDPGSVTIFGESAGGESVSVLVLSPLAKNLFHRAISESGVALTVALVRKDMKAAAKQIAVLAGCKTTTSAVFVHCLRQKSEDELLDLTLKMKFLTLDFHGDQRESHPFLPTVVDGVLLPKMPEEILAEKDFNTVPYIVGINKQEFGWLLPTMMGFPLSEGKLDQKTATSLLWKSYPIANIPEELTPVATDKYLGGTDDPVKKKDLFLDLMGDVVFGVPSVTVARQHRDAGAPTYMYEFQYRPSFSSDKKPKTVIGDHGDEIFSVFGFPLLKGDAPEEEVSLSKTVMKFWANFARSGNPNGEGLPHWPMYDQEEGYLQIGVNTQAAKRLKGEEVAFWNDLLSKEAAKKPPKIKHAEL", "experiment": "Enzymatic hydrolysis by esterase (Km, Lineweaver-Burk)", "assay_type": "biochemical"}, "[3]": {"experiment": "Fluorescence emission maximum and quantum yield", "assay_type": "physicochemical", "procedure": "Second, quantum yields of compounds 1-9 and 14 were measured. Solutions (1×10^-6 M) of compounds 1-9 were prepared in carbonate/ bicarbonate buffer (pH 9.5). Fluorescence emission spectra were measured on a Perkin-Elmer MPF-2A fluorescence spectrophotometer in 3-mL disposable plastic cuvettes. The excitation wavelength was set 30 nm to the red of the maximum excitation wavelength and the emission spectra measured. The area under the emission spectrum was measured (F). The quantum yield (.PHI.) was determined using the following equation, F-kIo .PHI.εcb, where F is the fluorescence, k is a fluorimeter constant, Io is the light intensity at the exciting wavelength, ε is the extinction coefficient at the exciting wavelength, c is the concentration of the dye, and b is the pathlength of the cuvette. The value of k was determined for three different emission wavelength regions by using literature values of .PHI. and measuring the fluorescence of fluorescein (470-670 nm, .PHI.=0.92), eosin (500-700 nm, .PHI.=0.19) and allophycocyanin (Applied BioSystems, 600-800 nm, .PHI.=0.68). The value of Io was determined from a table that was generated by scanning the range of exciting wavelengths on the fluorescence spectrophotometer with the emission monochrometer open; a piece of white paper was placed in the sample holder to reflect the exciting light. The concentration of the dyes were 0.6-1.0 uM; this value in each case was below the concentration ([…]) required in order for the equation to be valid.\n(§1) Finally, the spectral characteristics of compounds 1-9 was determined. The extinction coefficients and quantum yields or compounds 1-9 were determined at pH 9.5. The extinction coefficient and quantum yield of monoprotonated Vita Blue was also determined at pH 5.2. The extinction coefficient and the quantum yield of VBDB were determined at pH 7.2."}, "Stability in water": {"experiment": "Stability in water", "details": "pH 7"}, "human white blood cells": {"tested_on": "human white blood cells", "experiment": "Staining of lysed whole blood, fluorescence by flow cytometry", "assay_type": "cell-based", "procedure": "(§2) After characterizing the various xanthene dyes prepared in accordance with this invention, one of the dyes (VBDB) was used to stain cells. The ability of VBDB to stain cells was compared with BCECF-AM, a membrane permeable esterase substrate (Molecular Probes) and fluorescein diacetate (FDA). […] After incubation, the tube was centrifuged. This procedure specifically lyses red blood cells leaving the white cells intact and viable. The supernatant was removed and the white blood cells which remained were washed twice and resuspended in blood cell diluent (1 mL, Diagnostic Technology, Inc.). The cell concentration and the percentage of dead cells were ascertained by counting the cells manually using a fluorescent microscope and a hemacytometer; acridine orange and ethidium bromide were used to stain live and dead cells respectively.\n(§3) Four samples of approximately 1.7×10^6 cells then were placed in polystyrene tubes. To each tube was added one of the following solutions (1 mL): FDA (1 uM) BCECF-AM (1 uM), VBDB (0.8 uM), or VBDB (8.0 uM). The dye solutions were prepared by diluting a stock solution of each dye (1-8 mM in DMSO) into blood cell diluent. The tubes were kept at room temperature for 30 minutes. The samples were washed three times and resuspended in blood cell diluent (1 mL).\n(§4) A bandpass 530/30 emission filter was used for both FDA and BCECF-AM, while a bandpass 660/20 emission filter was used for VBDB. Data from 10,000 events were acquired from each of these samples immediately after staining, one hour after staining, and two hours after staining.\n(§5) Referring to FIG. 2, VBDB, BCECF-AM and FDA were compared as vital dyes by staining lysed whole blood and examining the fluorescence by flow cytometry. […] Four samples of cells were incubated with BCECF AM (1 uM), FDA (1 uM) and VBDB (0.8 uM, 8.0 uM). The cells were analyzed immediately after staining (t=0), after one hour (t=1) and after two hours (t=2).\n(§6) The data in FIG. 2 also was used to quantitate the \"live\" cells and the \"dead\" cells. […] It was assumed the live cells were those cells which retained the dye (the right peak) and that dead cells were those cells whose membranes had become leaky (the left peak). By setting the gate to the immediate left of the main peak, the \"dead\" cells to the left of the gate were counted."}, "[4]": {"experiment": "Staining of lysed whole blood, fluorescence by flow cytometry", "assay_type": "cell-based, human", "details": "human, white blood cells", "procedure": "as §2, §3, §4, §5, §6"}, "[5]": {"experiment": "Absorbance maximum and extinction coefficient", "assay_type": "physicochemical", "details": "for ε (extinction coefficient): pH 7.2, at 480 nm", "procedure": "First, the extinction coefficient of compounds 1-9 and 14 was determined. Stock solutions (5×10^-3 M) of each dye were made by dissolving the dye in two equivalents of 0.1 N NaOH and making up the volume with carbonate/bicarbonate buffer (0.16, 0.34 M, pH 9.5). The solution was diluted ([…]) in additional buffer (final pH 9.5-10) and the absorbance spectrum measured. A stock solution (1.2×10^-3 M) of Vita Blue was prepared in DMSO, diluted into citrate buffer (0.1 M, pH 5 2) to give a final concentration of 1.6×10^-5 M and the absorbance spectrum measured. A stock solution (8.2×10^-3 M) of VBDB was prepared in DMSO and diluted into pyrophosphate buffer (0.1 M, pH 7.2) to give a final concentration of 8.1×10^-5 M and the absorbance spectrum measured on a Beckman model DU-6UV visible spectrophotometer.\nas §1"}, "[6]": {"details": "pH 7"}, "[7]": {"details": "not told"}}, "note": "Where two headings read alike, the source gives them in different places.", "data": [{"molecule": "CC(=O)Oc1ccc2c3c(ccc2c1)C1(OS(=O)(=O)c2ccccc21)c1ccc2cc(OC(C)=O)ccc2c1O3", "note": "[Diacetate ester of compound 9, Vita Blue diacetate]", "values": [{"measurement": "membrane permeability", "setting": "[1]", "value": "neither diacetates were membrane permeable"}, {"measurement": "esterase substrate", "setting": "[2]", "value": "esterase substrates"}]}, {"molecule": "CCCC(=O)Oc1ccc2c3c(ccc2c1)C1(OS(=O)(=O)c2ccccc21)c1ccc2cc(OC(=O)CCC)ccc2c1O3", "note": "[Compound 14, Vita Blue dibutyrate]", "values": [{"measurement": "excitation maximum", "setting": "[3]", "value": 480, "unit": "nm"}, {"measurement": "EM Max", "setting": "[3]; pH 7.2", "value": 552, "unit": "nm"}, {"measurement": "Quantum Yield", "setting": "[3]; pH 7.2", "value": 0.03}, {"measurement": "EM Max", "setting": "[3]; pH 7.2, listed as dibutyrate derivative of compound 9", "value": 550, "unit": "nm"}, {"measurement": "stability in water", "setting": "Stability in water", "value": "relatively stable in water at pH 7"}, {"measurement": "esterase substrate", "setting": "[2]", "value": "good substrate"}, {"measurement": "specific activity", "setting": "[2]; pH 8.0", "value": "2.5 (ug substrate) (min)^-1 (mg enzyme)^-1"}, {"measurement": "retention of initial fluorescence by stained cells over time", "setting": "human white blood cells; 0.8 uM dye", "value": "maintained their initial fluorescence"}, {"measurement": "coefficient of variation (CV) in the fluorescence histogram", "setting": "human white blood cells; 0.8 uM, t=0", "value": 39, "unit": "%"}, {"measurement": "coefficient of variation (CV) in the fluorescence histogram", "setting": "human white blood cells; 0.8 uM, t=1 h", "value": 43, "unit": "%"}, {"measurement": "coefficient of variation (CV) in the fluorescence histogram", "setting": "human white blood cells; 0.8 uM, t=2 h", "value": 46, "unit": "%"}, {"measurement": "retention of initial fluorescence by stained cells over time", "setting": "human white blood cells; 8 uM dye, after one hour", "value": "actually increased their fluorescence slightly after one hour"}, {"measurement": "coefficient of variation (CV) in the fluorescence histogram", "setting": "human white blood cells; 8 uM, t=0", "value": 30, "unit": "%"}, {"measurement": "coefficient of variation (CV) in the fluorescence histogram", "setting": "human white blood cells; 8 uM, t=1 h", "value": 35, "unit": "%"}, {"measurement": "coefficient of variation (CV) in the fluorescence histogram", "setting": "human white blood cells; 8 uM, t=2 h", "value": 34, "unit": "%"}, {"measurement": "number of leaky cells, comparison of BCECF and VBDB", "setting": "human white blood cells; after two hours, higher VBDB concentration", "value": "the same number of \"leaky\" cells after two hours"}, {"measurement": "deleterious effect on cells", "setting": "human white blood cells; higher concentration (8 uM)", "value": "did not seem to be deleterious to the cells"}, {"measurement": "percentage of dead (leaky) cells at 0 h, 0.8 µM", "setting": "[4]; 0.8 uM, t=0", "value": 14, "unit": "%"}, {"measurement": "percentage of dead (leaky) cells at 1 h, 0.8 µM", "setting": "[4]; 0.8 uM, t=1 h", "value": 18, "unit": "%"}, {"measurement": "percentage of dead (leaky) cells at 2 h, 0.8 µM", "setting": "[4]; 0.8 uM, t=2 h", "value": 20, "unit": "%"}, {"measurement": "percentage of dead (leaky) cells at 8 µM", "setting": "[4]; 8 uM, second value, printed t=2", "value": 17, "unit": "%"}, {"measurement": "percentage of dead (leaky) cells at 0 h, 8 µM", "setting": "[4]; 8 uM, t=0", "value": 12, "unit": "%"}, {"measurement": "percentage of dead (leaky) cells at 2 h, 8 µM", "setting": "[4]; 8 uM, t=2 h", "value": 22, "unit": "%"}, {"measurement": "Abs Max", "setting": "[5]; pH 7.2", "value": 480, "unit": "nm"}, {"measurement": "ε (extinction coefficient)", "setting": "[5]", "value": 5900, "unit": "M⁻¹ cm⁻¹"}, {"measurement": "ε (extinction coefficient)", "setting": "[5]; listed as dibutyrate derivative of compound 9", "value": 5900, "unit": "M⁻¹ cm⁻¹"}]}, {"molecule": "Sulfonefluorescein diacetate [Diacetate ester of compound 2]", "values": [{"measurement": "esterase substrate", "setting": "[2]", "value": "esterase substrates"}, {"measurement": "stability in water", "setting": "[6]", "value": "relatively stable in water at pH 7"}, {"measurement": "membrane permeability", "setting": "[7]", "value": "neither diacetates were membrane permeable"}]}]}
